According to US20230128198A1, “NOVEL HETEROCYCLIC COMPOUNDS USEFUL AS AURORA A SELECTIVE INHIBITORS” (JACOBIO PHARMACEUTICALS CO., LTD., priority 2020, published 2023):

Legend:
[1] = tested on: NCI-H446 and NCI-H69 human small cell lung cancer xenograft model; assay: In vivo anti-tumor efficacy, xenograft model; parameters: species or system BALB/c nude mice; details: 15 mg/kg po., BID × 10 days, QD × 19 days, treatment 29 days
Procedure: This study is to examine the anti-tumor efficacy of test compounds in NCI-H446 and NCI-H69 human small cell lung cancer xenograft model in BALB/c nude mice. Each mouse was inoculated subcutaneously at the right flank region with NCI-H446 (3×10^6) and NCI-H69 cells (5×10^6) in 0.1 mL of PBS and Matrigel (1:1) for tumor development. The mouse were randomized according to tumor size and weight, the treatment began when the mean tumor size reached 100-200 mm^3. Anti-tumor activity was assessed according to relative tumor inhibition rate (TGI).
Tumor volumes were measured in two dimensions using a caliper, and the volume was expressed in mm^3 using the formula: V=0.5a×b^2 where a and bare the long and short diameters of the tumor, respectively. Statistical analysis of difference in tumor volume among the groups were performed using one-way ANOVA. All data was analyzed using SPSS 22.0 software. p<0.05 was considered to be statistically significant.

[2] = molecular target: T1, Aurora A (Homo sapiens, UniProt O14965); assay: Aurora A kinase assay (mobility shift assay); format: biochemical
T1 sequence (O14965 1-403): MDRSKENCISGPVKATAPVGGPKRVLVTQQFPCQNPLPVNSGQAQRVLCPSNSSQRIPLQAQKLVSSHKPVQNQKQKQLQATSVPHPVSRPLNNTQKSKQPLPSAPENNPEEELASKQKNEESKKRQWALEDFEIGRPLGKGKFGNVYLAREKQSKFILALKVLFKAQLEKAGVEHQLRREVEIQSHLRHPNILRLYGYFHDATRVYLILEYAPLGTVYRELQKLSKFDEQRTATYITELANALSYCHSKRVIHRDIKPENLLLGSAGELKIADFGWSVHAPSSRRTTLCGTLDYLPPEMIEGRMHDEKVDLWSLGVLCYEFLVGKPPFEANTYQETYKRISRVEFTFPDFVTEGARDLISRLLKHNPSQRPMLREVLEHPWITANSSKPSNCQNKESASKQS
Procedure: (§1) Example A: Evaluation of Aurora a and Aurora B Inhibitory Effect—Kinase Assay
(§2) The inhibitory activities of a test compound against Aurora A and Aurora B were measured according to the following method.
(§3) The IC50 value of Aurora A and Aurora B kinase was performed by Sundia MediTech Co. Ltd. using Mobility shift assay.
(§4) • (1) Prepare a 1× kinase buffer [50 mM 4-(2-hydroxyethyl)-1-piperazineethanesulfonic acid (HEPES), PH 7.5, 0.01% Brij-35, 10 mM MgCl2, 2 mM dithiothreitol (DTT)]. • (2) Prepare compound:
The testing compound was dissolved with DMSO. The testing compound was diluted up to 100× final concentration in a 384-well plate. Transfer 250 nL of the compound dilution to a 384-well assay plate using Echo 550. […] Add 10 μL of the 1× kinase buffer to the negative control well. • (5) The 384-well plate was centrifuged at 1000 rpm for 30 seconds and incubated at room temperature for 10 min. • (6) A mixture of ATP and Kinase substrate 21 with a final concentration of 25/15× was prepared by the 1× kinase buffer. • (7) Add 15 µL of the mixture of 25/15×ATP and kinase substrate solution 21 to start reaction. • (8) The 384-well plate was centrifuged at 1000 rpm for 30 seconds and incubated at room temperature. • (9) 30 µL of the stop and detection buffer was added to stop the kinase reaction and centrifuged at 1000 rpm for 30 seconds. • (10) Collect data on Caliper EZ ReaderII. […]

[3] = molecular target: Aurora B (Homo sapiens, UniProt Q96GD4); assay: Aurora B kinase assay (mobility shift assay); format: biochemical; details: ratio of Aurora B IC50 to Aurora A IC50
Chain of Aurora B (Q96GD4 whole entry): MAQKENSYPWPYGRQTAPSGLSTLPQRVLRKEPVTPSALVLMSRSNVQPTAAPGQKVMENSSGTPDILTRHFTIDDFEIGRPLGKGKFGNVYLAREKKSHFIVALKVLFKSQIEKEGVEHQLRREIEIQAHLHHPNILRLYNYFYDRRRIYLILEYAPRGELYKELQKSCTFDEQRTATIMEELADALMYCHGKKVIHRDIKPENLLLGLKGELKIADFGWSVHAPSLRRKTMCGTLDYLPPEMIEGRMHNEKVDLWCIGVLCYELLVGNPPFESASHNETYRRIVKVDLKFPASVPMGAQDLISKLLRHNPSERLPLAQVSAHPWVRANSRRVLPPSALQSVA
Procedure: as §1, §2, §3, §4
The testing compound was dissolved with DMSO. The testing compound was diluted up to 100× final concentration in a 384-well plate. Transfer 250 nL of the compound dilution to a 384-well assay plate using Echo 550. 100% DMSO of 250 nL was added to the negative control well and the positive control well. • (3) Prepare a 2.5× enzyme solution using the above 1× kinase buffer. • (4) Add 10 μL of the 2.5× enzyme solution to the compound well and the positive control well of the 384-well assay plate.
Conversion %_sample is conversion rate data of samples. Conversion %_min is mean value of negative control (conversion rate data without enzyme activation). Conversion %_max is mean positive control (conversion rate data without compound).
The log of concentration is on the X axis, and the percentage inhibition is on the Y axis.

[4] = PK in rat; format: in vivo, SD male rats
Procedure: The compounds were dissolved into 10% DMSO, 30% PEG400, and 60% saline to obtain a solution. SD male rats were given the compound orally and intravenously. Then plasma samples were collected at 0 hour (pre-dose), 0.25, 0.5, 1, 2, 4, 7, 24 hours post-dose. Plasma drug concentration was detected by LC-MS/MS. Pharmacokinetic parameters were calculated using WinNonlin's software with non-compartmental model.

Row | SMILES | TGI TV(%) [1] | TV (mean ± sem) [1] | further results
1 | Cc1cc(Nc2nc(C[C@@]3(C(=O)O)CCN(Cc4cccc(Cl)c4F)[C@H](C)C3)ccc2F)[nH]n1 [Example 5, (2R,4R)-1-(3-chloro-2-fluorobenzyl)-4-((5-fluoro-6-((3-methyl-1H-pyrazol-5-yl)amino)pyridin-2-yl)methyl)-2-methylpiperidine-4-carboxylic acid] | 98% | 27 ± 5 mm^3 | 
2 | Cc1cc(Nc2cc(C)c(F)c(C[C@@]3(C(=O)O)CCN(Cc4cccc(Cl)c4F)[C@H](C)C3)n2)n[nH]1 [Example 49, (2R,4R)-1-(3-chloro-2-fluorobenzyl)-4-((3-fluoro-4-methyl-6-((5-methyl-1H-pyraz-ol-3-yl)amino)pyridin-2-yl)methyl)-2-methylpiperidine-4-carboxylic acid] | 90% | 160 ± 26 mm^3 | 
3 | CC(=O)c1cc(Nc2cc(C)[nH]n2)nc(CC2(C(=O)O)CCN(Cc3cccc(Cl)c3F)CC2)c1F [Example 69, 4-((4-acetyl-3-fluoro-6-((5-methyl-1H-pyrazol-3-yl)amino)pyridin-2-yl)methyl)-1-(3-chloro-2-fluorobenzyl) piperidine-4-carboxylic acid] |  |  | IC50 [2]: 0.91 nM; IC50 Ratio Aur B/Aur A [3]: 1444
4 | Cc1cc(Nc2cc(Cl)c(F)c(C[C@@]3(C(=O)O)CCN(Cc4cccc(Cl)c4F)[C@H](C)C3)n2)n[nH]1 [Example 72, (2R,4R)-1-(3-chloro-2-fluorobenzyl)-4-((4-chloro-3-fluoro-6-((5-methyl-1H-pyrazol-3-yl)amino)pyridin-2-yl)methyl)-2-methylpiperidine-4-carboxylic acid] | 89% | 176 ± 25 mm^3 | 
5 | Cc1cc(Nc2nc(C[C@@]3(C(=O)O)CCN(Cc4cccc(Cl)c4F)[C@H](C)C3)cc(C)c2F)n[nH]1 [Example 78, (2R,4R)-1-(3-chloro-2-fluorobenzyl)-4-((5-fluoro-4-methyl-6-((5-methyl-1H-pyrazol-3-yl)amino)pyridin-2-yl)methyl)-2-methylpiperidine-4-carboxylic acid] | 96% | 65 ± 14 mm^3 | 
6 | Cc1cc(Nc2ccc(F)c(C[C@@]3(C(=O)O)CCN(Cc4cccc(Cl)c4F)[C@H](C)C3)n2)n[nH]1 [LY3295668] |  |  | CL ([4]; IV: 3 mg/kg): 1.52 mL/min/kg; Vss ([4]; IV: 3 mg/kg): 0.29 L/kg; AUClast ([4]; PO: 10 mg/kg): 91211 ng·h/mL; Cmax ([4]; PO: 10 mg/kg): 15033 ng/mL; t½ ([4]; PO: 10 mg/kg): 3.37 h; F % ([4]; PO: 10 mg/kg vs IV: 3 mg/kg): 81%
